“And” between values parts separate entries of the source, which are not always exact repeats. Identical values can stand only once.
Key:
[1] = Stability in mouse brain homogenate (perfused, non-perfused) at 37°C; format: in vitro ADME; conditions: 100 nM; for [QST], % of control: mouse brain homogenate, 37 C; for [QST], % of control / raw response (Data Point): replicates; for %stability ([QST], % of control, Mean) / raw response, Mean / raw response (Data Point): mouse brain, 37C
Method: Hydroxamic acid–based compounds have been reported to display poor stability and high plasma clearance due to the presence of arylesterases and carboxylesterases in rodent blood ([34]). Therefore, we measured the stability of QST in mouse plasma and brain to determine whether drug degradation occurred during our sample preparations and equilibrium dialyses for the determination of unbound drug level (performed at 37°C). […] QST degradation was also observed in mouse brain homogenate (Figure 6B). However, perfusion of mice before brain collection prevented rapid drug degradation in the brain matrix. […] Degradation of QST can also be constrained if plasma and brain samples are processed at 4°C (Supplemental Figure 4A). All subsequent sample preparations were therefore performed on ice-cold baths to avoid degradation of QST in our PK analyses. […] The observed stability is probably due to the absence of esterases in human matrices, which are responsible for degradation of QST ([34]). Because we employed QST in several in vitro studies (Figures 1–4), the stability of the molecule was also tested in the cell media used to culture GSCs (neurobasal medium; see Methods).
Stability Study in Mouse Plasma, Mouse Brain, Human Plasma, Human Brain, and Neural […]
The stability of QST was determined in BALB/c mouse plasma, male nude athymic perfused and nonperfused mouse brain homogenate (1:9 w/v of PBS; pH 7.4), human brain (obtained from VRL Eurofins) homogenate (1:4 w/v of PBS; pH 7.4), pooled human plasma (Innovative Research), and neurobasal media. QST stock solutions (1 mM) were prepared in acetonitrile, subsequently diluted in a 40% methanol mixture, and added t o the matrices to make final concentrations of 100 nM or 10 nM. Then 50 or 30 µL of either plasma or brain homogenate containing QST were aliquoted into 1.5-mL microcentrifuge tubes (Eppendorf) and were incubated at either 4 °C or 37 °C for 0, 2, 4, 6, 12, or 24 hours (n = 3 at each time point). […]
Plasma and brain […]
homogenate samples were stored at −80 °C until LC-MS/MS analysis. […]

[2] = system: orthotopic GB126 tumors; assay: Survival study, orthotopic GB126 PDX, QST with or without IR; format: in vivo, athymic nude mice; conditions: for Survival, Days Post Injection (death): GB126 PDX, individual mice; for increase of median survival versus vehicle: orthotopic GB126 PDX
Method: We additionally questioned whether QST, either alone or in combination with IR, could extend the survival of tumor-bearing mice. In this study, mice received the same treatments described above, but after completion of the 1-week IR regimen, mice continued to receive QST at 10 mg/kg or vehicle solution on MWF until study completion, as determined by large tumor burden and onset of neurological symptoms (Figure 8A). […] Although QST monotherapy slowed tumor growth, median survival for the QST-treated mice was only 4 days longer than for the vehicle-treated mice (P < 0.01), and IR alone increased median survival by 17 days (P < 0.001; Figure 8D). However, combining QST with IR led to a significant increase in median survival (37 days, P < 0.001) compared with the vehicle (Figure 8D).
Seven-week-old Foxn1^nu nude male mice (The Jackson Laboratory) were used for in vivo orthotopic transplantation of luciferized GB126 ([…]) cells (at a density of 50,000 cells/μL). All procedures were performed as described elsewhere ([11]). All mice were observed daily and were sacrificed upon the onset of severe neurological symptoms and more than 10% body weight loss. Survival data were plotted and analyzed using GraphPad Prism 8. See Supplemental Methods for detailed in vivo methods. […]
treated with 2 Gy of ionizing radiation on MWF for a total 6 Gy (3 doses). Ionizing radiation was administered with the RS2000 series biological research irradiator (Rad Source Technologies). […]
Treatment of Mice with Intracranially Implanted QST and/or Radiation
Mice with implanted tumors were allowed to grow until the tumor bioluminescence score reached […] radiance (p/s/[…]/sr). Mice were randomized into groups before treatment. For survival studies, mice underwent treatment on MWF for the entire duration of the experiment until moribund. For mice receiving IR treatment with or without QST, mice were treated with 2 […]
Gy on MWF for a total of 6 Gy in the first week of treatment. Treatment groups included vehicle (50% PEG-3000), QST (10 mg/kg) alone, 6 Gy whole-brain IR treatment with vehicle, and 6 Gy whole-brain IR treatment with 10 mg/kg QST. QST was administered to mice through intraperitoneal injections two hours prior to whole-brain radiation treatment. Upon completion of the radiation regimen, IR-treated mice subsequently received QST or vehicle alone for the rest of the experiment. Tumor growth and treatment response was monitored by IVIS bioluminescence once per week. For survival studies, mice were sacrificed, and samples were collected for PD and PK analyses once moribund 2 hours after treatment with a final dose of QST (10 mg/kg).
For short-term PK-PD correlation studies, tumor-bearing mice were randomized into groups and underwent a single week of treatment with QST (10 mg/kg) on MWF. […]

## Cn1cc(CNCC2CCN(c3ncc(C(=O)NO)cn3)CC2)c2ccccc21 [QST, quisinostat]
[1]; Non-Perfused, 0 hours
  [QST], % of control: 99.9% and 101.4% and 98.8%
[1]; Non-Perfused, 2 hours
  [QST], % of control: 90.9% and 101.4% and 87.2%
[1]; Non-Perfused, 6 hours
  [QST], % of control: 71.4% and 72.9% and 80.4%
[1]; Non-Perfused, 24 hours
  [QST], % of control: 46.8% and 49% and 47.5%
[1]; Perfused, 0 hours
  [QST], % of control: 103.7% and 102.4% and 93.9%
[1]; Perfused, 2 hours
  [QST], % of control: 98.2% and 99.9%
[1]; Perfused, 6 hours
  [QST], % of control: 98.2% and 97.3%
[1]; Perfused, 24 hours
  [QST], % of control: 85.9% (2×) and 82.9%
[1]; Non-perfused, 0 hrs
  %stability ([QST], % of control, Mean): 100.0%
  raw response, Mean: 267333
  raw response (Data Point): 267000 and 271000 and 264000
[1]; Non-perfused, 2 hrs
  %stability ([QST], % of control, Mean): 93.1%
  raw response, Mean: 249000
  raw response (Data Point): 243000 and 271000 and 233000
[1]; Non-perfused, 6 hrs
  %stability ([QST], % of control, Mean): 74.9%
  raw response, Mean: 200333
  raw response (Data Point): 191000 and 195000 and 215000
[1]; Non-perfused, 24 hrs
  %stability ([QST], % of control, Mean): 47.8%
  raw response, Mean: 127667
  raw response (Data Point): 125000 and 131000 and 127000
[1]; Perfused, 0 hrs
  %stability ([QST], % of control, Mean): 100.0%
  raw response, Mean: 236333
  raw response (Data Point): 245000 and 242000 and 222000
[1]; Perfused, 2 hrs
  %stability ([QST], % of control, Mean): 98.7%
  raw response, Mean: 233333
  raw response (Data Point): 232000 and 236000
[1]; Perfused, 6 hrs
  %stability ([QST], % of control, Mean): 97.6%
  raw response, Mean: 230667
  raw response (Data Point): 232000 and 230000
[1]; Perfused, 24 hrs
  %stability ([QST], % of control, Mean): 84.9%
  raw response, Mean: 200667
  raw response (Data Point): 203000 and 196000
[2]; QST 10 mg/kg + IR 6 Gy
  Survival, Days Post Injection (death): 79 days and 85 days and 83 days and 86 days and 75 days and 84 days and 82 days
[2]; QST 10 mg/kg alone
  Survival, Days Post Injection (death): 65 days and 50 days and 49 days and 48 days and 46 days and 57 days and 54 days and 66 days
[2]; QST 10 mg/kg MWF + IR 6 Gy
  increase of median survival versus vehicle: 37 days
[2]; QST 10 mg/kg MWF monotherapy
  increase of median survival versus vehicle: 4 days
